{"source": "patent US7750003B2", "about": "“Compounds-943” (AstraZeneca AB, priority 2006, dated 2010)", "note": "Where “and” joins values, the source holds several entries; their conditions need not be identical. Equal values may be shown once."}
{"target": "recombinant mTOR (FLAG-tagged, residues 1362-2549) (Homo sapiens, UniProt P42345)", "sequence (P42345 1362-2549)": "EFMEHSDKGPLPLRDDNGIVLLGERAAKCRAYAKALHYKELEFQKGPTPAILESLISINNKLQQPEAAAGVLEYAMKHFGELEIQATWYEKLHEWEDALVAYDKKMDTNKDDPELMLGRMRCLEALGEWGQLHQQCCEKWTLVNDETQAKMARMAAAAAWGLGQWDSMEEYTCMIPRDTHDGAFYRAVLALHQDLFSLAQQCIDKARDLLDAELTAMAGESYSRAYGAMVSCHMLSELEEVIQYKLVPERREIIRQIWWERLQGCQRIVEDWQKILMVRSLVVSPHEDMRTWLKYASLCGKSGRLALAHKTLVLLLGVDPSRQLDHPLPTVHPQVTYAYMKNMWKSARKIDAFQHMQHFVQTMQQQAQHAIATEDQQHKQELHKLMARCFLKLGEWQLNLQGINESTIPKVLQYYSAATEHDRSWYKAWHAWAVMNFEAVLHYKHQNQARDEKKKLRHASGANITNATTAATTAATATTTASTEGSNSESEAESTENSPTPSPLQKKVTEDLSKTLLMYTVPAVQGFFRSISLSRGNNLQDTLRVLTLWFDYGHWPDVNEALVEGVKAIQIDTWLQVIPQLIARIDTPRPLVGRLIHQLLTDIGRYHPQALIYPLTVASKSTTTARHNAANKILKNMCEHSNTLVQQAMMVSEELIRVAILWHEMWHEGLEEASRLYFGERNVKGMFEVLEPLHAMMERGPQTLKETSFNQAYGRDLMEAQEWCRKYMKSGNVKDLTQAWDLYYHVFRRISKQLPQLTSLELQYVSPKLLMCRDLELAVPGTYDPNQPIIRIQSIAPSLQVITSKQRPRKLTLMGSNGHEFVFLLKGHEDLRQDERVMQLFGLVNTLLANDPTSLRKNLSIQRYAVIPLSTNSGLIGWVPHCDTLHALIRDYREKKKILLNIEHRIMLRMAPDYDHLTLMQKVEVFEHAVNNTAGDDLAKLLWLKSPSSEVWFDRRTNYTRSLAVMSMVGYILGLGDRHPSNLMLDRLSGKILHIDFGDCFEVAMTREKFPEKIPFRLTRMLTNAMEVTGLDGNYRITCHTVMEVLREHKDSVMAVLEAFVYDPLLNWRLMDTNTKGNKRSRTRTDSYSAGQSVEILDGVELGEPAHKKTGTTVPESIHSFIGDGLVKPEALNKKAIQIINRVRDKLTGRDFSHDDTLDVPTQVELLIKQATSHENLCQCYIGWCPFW", "assay": "In vitro mTOR kinase assay (Test (a), AlphaScreen)", "assay_type": "biochemical", "conditions": "ATP 20 μM, read-out: Test (a): IC50 versus mTOR kinase", "method_in_brief": "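AlphaScreen read-out: a phospho-T389 p70 S6K antibody on acceptor beads captures the phosphorylated biotin-peptide on donor beads, with signal loss indicating inhibition.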"}
{"compound": "Cc1cc(NC(=O)Nc2ccc(-c3nc(CS(C)(=O)=O)cc(N4CCOCC4)n3)cc2)no1", "note": "[Example 34b, 1-(5-methyl-1,2-oxazol-3-yl)-3-[4-[4-(methylsulfonylmethyl)-6-morpholin-4-yl-pyrimidin-2-yl]phenyl]urea]", "IC50": "120 nM and 155 nM and 93 nM"}
{"target": "T1, p110α Type Ia human PI3K (Homo sapiens, UniProt P42336)", "T1 construct": "full length DNA of each of the p110α, p110β and p110δ Type Ia human PI3K p110 isoforms; 6-His; made in house", "T1 sequence (P42336 whole entry, canonical isoform)": "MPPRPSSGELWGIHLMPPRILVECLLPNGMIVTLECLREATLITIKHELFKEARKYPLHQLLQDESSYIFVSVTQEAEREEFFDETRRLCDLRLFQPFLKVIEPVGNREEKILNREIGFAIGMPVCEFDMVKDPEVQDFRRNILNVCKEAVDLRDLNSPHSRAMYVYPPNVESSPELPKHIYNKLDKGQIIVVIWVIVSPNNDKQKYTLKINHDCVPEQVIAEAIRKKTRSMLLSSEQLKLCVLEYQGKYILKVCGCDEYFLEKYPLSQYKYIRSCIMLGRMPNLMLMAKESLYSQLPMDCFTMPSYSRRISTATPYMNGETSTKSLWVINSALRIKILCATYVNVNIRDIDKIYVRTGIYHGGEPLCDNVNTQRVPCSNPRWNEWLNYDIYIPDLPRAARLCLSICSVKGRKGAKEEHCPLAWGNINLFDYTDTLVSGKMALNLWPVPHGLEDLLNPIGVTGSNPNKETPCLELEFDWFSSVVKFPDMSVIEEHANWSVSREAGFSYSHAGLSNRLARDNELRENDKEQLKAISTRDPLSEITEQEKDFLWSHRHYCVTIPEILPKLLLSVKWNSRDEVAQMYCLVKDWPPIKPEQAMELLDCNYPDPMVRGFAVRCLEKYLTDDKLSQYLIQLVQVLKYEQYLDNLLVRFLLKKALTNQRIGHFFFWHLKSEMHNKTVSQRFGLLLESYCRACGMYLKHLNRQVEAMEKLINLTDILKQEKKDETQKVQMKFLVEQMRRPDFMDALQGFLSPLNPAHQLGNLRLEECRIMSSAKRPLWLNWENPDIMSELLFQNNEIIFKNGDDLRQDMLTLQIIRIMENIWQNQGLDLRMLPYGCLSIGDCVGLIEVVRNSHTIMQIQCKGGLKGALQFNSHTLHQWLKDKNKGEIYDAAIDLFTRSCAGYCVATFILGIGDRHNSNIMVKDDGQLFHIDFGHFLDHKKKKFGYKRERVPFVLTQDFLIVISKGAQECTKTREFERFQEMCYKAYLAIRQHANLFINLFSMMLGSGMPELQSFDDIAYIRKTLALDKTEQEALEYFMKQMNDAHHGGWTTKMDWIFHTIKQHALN", "T1 sequence (P27986 whole entry partner, canonical isoform)": "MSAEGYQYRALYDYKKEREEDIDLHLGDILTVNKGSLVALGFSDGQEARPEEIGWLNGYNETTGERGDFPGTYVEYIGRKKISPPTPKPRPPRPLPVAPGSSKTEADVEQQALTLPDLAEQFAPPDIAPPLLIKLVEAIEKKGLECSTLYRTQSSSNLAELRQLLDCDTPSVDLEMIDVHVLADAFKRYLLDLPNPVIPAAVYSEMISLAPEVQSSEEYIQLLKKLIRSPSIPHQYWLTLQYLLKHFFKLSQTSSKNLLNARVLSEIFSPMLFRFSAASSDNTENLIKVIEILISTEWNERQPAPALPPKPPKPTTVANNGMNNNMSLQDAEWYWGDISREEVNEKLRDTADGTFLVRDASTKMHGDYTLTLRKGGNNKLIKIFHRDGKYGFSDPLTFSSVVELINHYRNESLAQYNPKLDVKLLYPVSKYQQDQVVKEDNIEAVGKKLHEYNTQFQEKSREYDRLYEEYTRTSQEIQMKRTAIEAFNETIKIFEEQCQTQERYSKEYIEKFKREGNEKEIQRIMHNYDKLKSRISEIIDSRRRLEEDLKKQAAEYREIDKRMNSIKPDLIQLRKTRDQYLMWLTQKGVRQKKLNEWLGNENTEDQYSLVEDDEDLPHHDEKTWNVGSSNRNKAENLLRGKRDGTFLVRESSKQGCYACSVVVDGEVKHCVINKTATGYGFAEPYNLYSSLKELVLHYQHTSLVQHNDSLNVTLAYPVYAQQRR", "assay": "In vitro PI3K enzyme assay (Test (b), AlphaScreen), p110α", "assay_type": "biochemical", "conditions": "ATP 4 μM, read-out: Test (b): IC50 versus p110α Type Ia human PI3K", "description": "(b) In Vitro PI3K Enzyme Assay\nThe assay used AlphaScreen technology (Gray et al., Analytical Biochemistry, 2003, 313: 234-245) to determine the ability of test compounds to inhibit phosphorylation by recombinant Type I PI3K enzymes of the lipid PI(4,5)P2.\nDNA fragments encoding human PI3K catalytic and regulatory subunits were isolated from cDNA libraries using standard molecular biology and PCR cloning techniques. The selected DNA fragments were used to generate baculovirus expression vectors. In particular, full length DNA of each of the p110α, p110β and p110δ Type Ia human PI3K p110 isoforms (EMBL Accession Nos. HSU79143, S67334, Y10055 for p110α, p110β and p110δ respectively) were sub-cloned into a pDEST10 vector (Invitrogen Limited, Fountain Drive, Paisley, UK). The vector is a Gateway-adapted version of Fastbac1 containing a 6-His epitope tag. […]\nBiotinylated-DiC8-PI(3,4,5)P3 (50 nM; Cell Signals Inc., Catalogue No. 107), recombinant purified GST-Grp1 PH protein (2.5 nM) and AlphaScreen Anti-GST donor and acceptor beads (100 ng; Packard Bioscience Limited, Station Road, Pangbourne, Berkshire, UK, Catalogue No. 6760603M) were added and the assay plates were left for about 5 to 20 hours at room temperature in the dark. The resultant signals arising from laser light excitation at 680 nm were read using a Packard AlphaQuest instrument. […]"}
{"compound": "Cc1cc(NC(=O)Nc2ccc(-c3nc(CS(C)(=O)=O)cc(N4CCOCC4)n3)cc2)no1", "note": "[Example 34b, 1-(5-methyl-1,2-oxazol-3-yl)-3-[4-[4-(methylsulfonylmethyl)-6-morpholin-4-yl-pyrimidin-2-yl]phenyl]urea]", "IC50": "91200 nM and 57800 nM"}
{"test_system": "phosphorylation of Serine 473 in Akt in MDA-MB-468 human breast adenocarcinoma cells", "assay": "In vitro phospho-Ser473 Akt assay (Test (c))", "assay_type": "cell-based", "conditions": "Homo sapiens, MDA-MB-468, 2 h, MDA-MB-468 cells, 2 hours incubation; read-out: Test (c): IC50 versus Serine 473 in Akt", "method_in_brief": "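MDA-MB-468 cells (15000/well, adhered overnight) treated with compound for 2 h at 37 °C, 5% CO2. After formaldehyde fixation, permeabilisation and blocking, phospho-Akt Ser473 immunostained with Alexafluor488 secondary and quantified by laser-scanning imaging (Acumen Explorer); IC50 from fluorescence dose–response.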", "units": {"IC50": "nM"}}
{"compound": "C[C@H]1COCCN1c1cc(C(C)(C)S(=O)(=O)c2ccc(F)cc2)nc(-c2ccc(NC(=O)NC3CC3)cc2)n1", "note": "[Example 61q, 3-cyclopropyl-1-[4-[4-[2-(4-fluorophenyl)sulfonylpropan-2-yl]-6-[(3S)-3-methylmorpholin-4-yl]pyrimidin-2-yl]phenyl]urea]", "IC50": 77}
{"compound": "C[C@H]1COCCN1c1cc(C(=O)N2CCOCC2)nc(-c2ccc(NC(=O)NC3CC3)cc2)n1", "note": "[Example 63, 3-Cyclopropyl-1-[4-[4-[(3S)-3-methylmorpholin-4-yl]-6-(morpholine-4-carbonyl)pyrimidin-2-yl]phenyl]urea]", "IC50": 410}
{"compound": "C[C@H]1COCCN1c1cc(C(=O)N2CCCNCC2)nc(-c2ccc(NC(=O)NC3CC3)cc2)n1", "note": "[Example 63a, 3-cyclopropyl-1-[4-[4-(1,4-diazepane-1-carbonyl)-6-[(3S)-3-methylmorpholin-4-yl]pyrimidin-2-yl]phenyl]urea]", "IC50": 92}
{"compound": "C[C@H]1COCCN1c1cc(C(=O)N2CCS(=O)(=O)CC2)nc(-c2ccc(NC(=O)NC3CC3)cc2)n1", "note": "[Example 63b, 3-cyclopropyl-1-[4-[4-(1,1-dioxo1,4-thiazinane-4-carbonyl)-6-[(3S)-3-methylmorpholin-4-yl]pyrimidin-2-yl]phenyl]urea]", "IC50": 500}
{"compound": "C[C@@H]1CN(C(=O)c2cc(N3CCOC[C@@H]3C)nc(-c3ccc(NC(=O)NC4CC4)cc3)n2)C[C@H](C)O1", "note": "[Example 63c, 3-cyclopropyl-1-[4-[4-[(2R,6S)-2,6-dimethylmorpholine-4-carbonyl]-6-[(3S)-3-methylmorpholin-4-yl]pyrimidin-2-yl]phenyl]urea]", "IC50": 260}
{"compound": "C[C@H]1COCCN1c1cc(C(C)(C)S(=O)(=O)C(C)(C)C)nc(-c2ccc(NC(=O)NC3CC3)cc2)n1", "note": "[Example 66c, 3-cyclopropyl-1-[4-[4-[(3S)-3-methylmorpholin-4-yl]-6-(2-tert-butylsulfonylpropan-2-yl)pyrimidin-2-yl]phenyl]urea]", "IC50": 150}
{"compound": "C[C@H]1COCCN1c1cc(C(C)(C)S(=O)(=O)C(C)(C)C)nc(-c2ccc(NC(=O)NC3CCC3)cc2)n1", "note": "[Example 66d, 3-cyclobutyl-1-[4-[4-[(3S)-3-methylmorpholin-4-yl]-6-(2-tert-butylsulfonylpropan-2-yl)pyrimidin-2-yl]phenyl]urea]", "IC50": 160}
{"compound": "CCNC(=O)Nc1ccc(-c2nc(N3CCOC[C@@H]3C)cc(C(C)(C)S(=O)(=O)C(C)(C)C)n2)cc1", "note": "[Example 66e, 3-ethyl-1-[4-[4-[(3S)-3-methylmorpholin-4-yl]-6-(2-tert-butylsulfonylpropan-2-yl)pyrimidin-2-yl]phenyl]urea]", "IC50": 260}
{"compound": "C[C@H]1COCCN1c1cc(C(C)(C)S(=O)(=O)C(C)(C)C)nc(-c2ccc(NC(=O)NCCN(C)C)cc2)n1", "note": "[Example 66f, 3-(2-dimethylaminoethyl)-1-[4-[4-[(3S)-3-methylmorpholin-4-yl]-6-(2-tert-butylsulfonylpropan-2-yl)pyrimidin-2-yl]phenyl]urea]", "IC50": 40}
{"compound": "C[C@H]1COCCN1c1cc(C(C)(C)S(=O)(=O)C(C)(C)C)nc(-c2ccc(NC(=O)NCCO)cc2)n1", "note": "[Example 66g, 3-(2-hydroxyethyl)-1-[4-[4-[(3S)-3-methylmorpholin-4-yl]-6-(2-tert-butylsulfonylpropan-2-yl)pyrimidin-2-yl]phenyl]urea]", "IC50": 300}
